Results on 1 compound are retold here after BindingDB's records for patent US11981680 (Bristol Myers Squibb, 2024).

Each structure is given as a SMILES string. pIC50: −log10 of the molar value.

The target in this assay is Protein-arginine deiminase type-4 (Homo sapiens, UniProt Q9UM07). The experiment in a line: RFMS Human PAD4 Functional Assay. The method, then:
Compounds were solubilized in 100% DMSO to achieve a10 mM compound concentration. Compound stock solutions were stored at RT. A series of dilutions were prepared in DMSO and mixed 8 times with 20 μL mixing volume. Final top concentration of compound in the assay is 50 μM. Final assay conditions were as follows:Reaction volume: 26 μlAssay buffer: 25 mM hepes, pH 7.5, 5 mM NaCl, 1 mM DTT, 0.2 mg/ml BSA, 0.01% CHAPS, 50 μM Calcium, and 5 μM TPENFinal concentrations: 5 nM hPAD4 enzyme, 250 μM BAEE, and 0.5% DMSOTotal incubation time: 30 mins compound and enzyme preincubation at 37° C., 90 min enzyme/substrate reaction, 30 min reaction with phenyl glyoxal at 37° C.Stop solution: 40 μl 5% TCA in ACN0.13 μL of compound solution was added to 13 μL of 10 nM PAD4 in assay buffer. After 30 min 13 μl of 500 μM of BAEE was added in 25 mM hepes, pH 7.5, 5 mM NaCl, 1 mM DTT, 0.2 mg/ml BSA, 0.01% CHAPS, 50 μM Calcium, 5 μM TPEN was added and the reaction incubated for 90 min at 37° C. The enzymatic reaction was quenched by addition of 15 μl of 6.1N TCA, 100% Final Concentration is 20%, 35 μl of 8.5 mM phenyl glyoxal (final concentration 4 mM) is then added and the reaction is incubated for 30 min at 37° C.After 30 minutes the plates are spun down to remove all precipitate. The enzyme reaction was quenched with an equal volume of methanol containing internal standard (modified citrulline). […]

Protein-arginine deiminase type-4, sequence (Q9UM07 whole entry): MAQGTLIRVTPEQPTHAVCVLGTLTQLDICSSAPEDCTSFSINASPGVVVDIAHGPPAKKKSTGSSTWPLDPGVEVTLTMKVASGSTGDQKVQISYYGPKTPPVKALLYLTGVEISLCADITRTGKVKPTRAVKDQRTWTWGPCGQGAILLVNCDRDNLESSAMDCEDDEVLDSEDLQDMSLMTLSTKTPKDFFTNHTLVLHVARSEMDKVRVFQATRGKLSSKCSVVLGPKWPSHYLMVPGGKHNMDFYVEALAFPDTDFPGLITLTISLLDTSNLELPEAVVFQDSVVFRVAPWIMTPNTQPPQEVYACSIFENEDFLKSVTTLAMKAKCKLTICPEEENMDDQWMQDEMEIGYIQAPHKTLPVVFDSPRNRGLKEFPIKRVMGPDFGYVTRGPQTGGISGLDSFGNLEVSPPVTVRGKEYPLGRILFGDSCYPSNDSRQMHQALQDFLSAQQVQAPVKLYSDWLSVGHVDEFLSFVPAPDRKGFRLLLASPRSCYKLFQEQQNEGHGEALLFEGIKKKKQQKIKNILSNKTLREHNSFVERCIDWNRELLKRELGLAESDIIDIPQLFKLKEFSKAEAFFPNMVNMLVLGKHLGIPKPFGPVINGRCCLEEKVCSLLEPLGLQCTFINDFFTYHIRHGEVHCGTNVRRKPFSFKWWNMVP

The compound `COc1cc(C(=O)N2C[C@H]3CC[C@@H]2[C@@H]3N)cc2nc(-c3cc4scc(-c5cn[nH]c5)c4n3CC3CC3)n(C)c12` [US11981680, Example 39] showed a pIC50 of 7.46.
